In data set [1] the target is T1, AKR1B15 (Homo sapiens, UniProt C9JRZ8).
T1 construct: made in house; host or cells: E. coli BL21(DE3), with or without chaperone plasmids pBB540/pBB542
Description: Inhibition screening with D,L-glyceraldehyde as substrate. The class given is biochemical. To be noted: 6 mM D,L-glyceraldehyde as substrate, 0.1% DMSO. The procedure:
(§1) Activities were determined in 100 mM sodium phosphate, pH 7.0, at 25°C, using 0.2 mM NADPH in 0.2-cm path length cuvettes, with freshly prepared substrate solutions. One unit of activity is defined as the amount of enzyme required to transform 1 μmol of substrate per min at 25°C.
(§2) All compounds tested as inhibitors were dissolved in DMSO and assayed in a final concentration of 0.1% (v/v) DMSO using 6 mM D,L-glyceraldehyde as a substrate. Kinetic constant and IC50 (compound concentration that inhibits enzymatic activity by 50%) values were calculated by fitting the initial rates to the appropriate equation using Grafit 5.0 (Eritacus Software) and values were given as the mean ± standard error of three experiments. Standard error values were less than 20% of the mean values.

Data set [2] concerns the target T2, AKR1B10 (Homo sapiens, UniProt O60218).
T2 construct: made in house
To be noted: cited from earlier work.

The target of data set [3] is T3, AKR1B1 (Homo sapiens, UniProt P15121).
T3 construct: made in house
To be noted: cited from earlier work.

Data set [4] concerns the target T1, AKR1B15. As to the kind of experiment: Spectrophotometric activity assay (NADPH decrease at 340 nm), substrate kinetics. Type of data set: biochemical. To be noted: 3 mM D,L-glyceraldehyde, read-out: Km (μM) for cofactor NADPH.
For data set [5], the target named is T2, AKR1B10. The data set is described as above. The class given is biochemical. To be noted: 60 mM D,L-glyceraldehyde, read-out: Km (μM) for cofactor NADPH.
Data set [6] has as its target T2, AKR1B10. As to the kind of experiment: NADPH binding by quenching of Trp intrinsic fluorescence. Particulars: 0.5 μM protein, 20 mM sodium phosphate, pH 7.0, 25°C, read-out: K D value for NADPH. The protocol:
(§3) NADPH binding was analyzed by quenching of Trp intrinsic fluorescence of 0.5 μM protein, using a Cary Eclipse (Varian) fluorimeter, in 20 mM sodium phosphate, pH 7.0, at 25°C in a final volume of 1 mL. The excitation wavelength was 290 nm and the emission wavelength was monitored at 340 nm. AKR1B10 was used as a control. The dissociation constant (K D) values were calculated by nonlinear fitting of experimental data, using Grafit 5.0 (Eritacus Software), to the Morrison equation: ΔF=ΔFmax·[E]+[NADPH]+KD−([E]+[NADPH]+KD)^2−4·[E]·[NADPH]/2·[E]

Data set [7] concerns the target T1, AKR1B15. The description is as above. Particulars: 0.5 μM protein, 20 mM sodium phosphate, pH 7.0, 25°C, read-out: K D value for NADPH. The procedure:
as §3

The target in data set [8] is T3, AKR1B1. Particulars: read-out: Km (μM) for cofactor NADPH; cited from earlier work.
For data set [9], the target named is T2, AKR1B10. As to the kind of experiment: Inhibition of enzymatic activity with D,L-glyceraldehyde as substrate. The class given is biochemical. The procedure:
as §1, §2

A further data set has as its system CC(=O)CC(C)=O. Description: Spectrophotometric activity assay (NADPH decrease at 340 nm), substrate kinetics. Type of data set: biochemical, human. Particulars: other: AKR1B1, pH 7.0, 25.0 °C. The procedure: as §1, §2
Another data set has as its system CC(C)=CCC/C(C)=C/C=O. The description is as above. To be noted: other: AKR1B1, pH 7.0, 25.0 °C. Type of data set: biochemical, human. The procedure: as §1, §2
The test system of a further data set is CCC(=O)CC(=O)CC. The description is as above. To be noted: other: AKR1B1, pH 7.0, 25.0 °C. Type of data set: biochemical, human. The procedure:
as §1, §2

These results are taken from article PMC4519324, “Substrate Specificity, Inhibitor Selectivity and Structure-Function Relationships of Aldo-Keto Reductase 1B15: A Novel Human Retinaldehyde Reductase” (PLoS ONE, 2015).

Where two headings read alike, the source gives them in different places.

T2 sequence (O60218 whole entry): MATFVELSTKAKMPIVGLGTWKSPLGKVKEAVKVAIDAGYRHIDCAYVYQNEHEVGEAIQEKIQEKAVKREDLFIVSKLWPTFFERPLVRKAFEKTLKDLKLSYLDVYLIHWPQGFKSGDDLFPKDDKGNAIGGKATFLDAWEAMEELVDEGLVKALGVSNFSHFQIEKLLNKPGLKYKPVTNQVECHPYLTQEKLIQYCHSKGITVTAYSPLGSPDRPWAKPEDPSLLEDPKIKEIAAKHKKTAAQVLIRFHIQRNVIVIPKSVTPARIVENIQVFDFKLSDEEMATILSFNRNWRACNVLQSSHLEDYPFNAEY
T1 sequence (C9JRZ8 whole entry): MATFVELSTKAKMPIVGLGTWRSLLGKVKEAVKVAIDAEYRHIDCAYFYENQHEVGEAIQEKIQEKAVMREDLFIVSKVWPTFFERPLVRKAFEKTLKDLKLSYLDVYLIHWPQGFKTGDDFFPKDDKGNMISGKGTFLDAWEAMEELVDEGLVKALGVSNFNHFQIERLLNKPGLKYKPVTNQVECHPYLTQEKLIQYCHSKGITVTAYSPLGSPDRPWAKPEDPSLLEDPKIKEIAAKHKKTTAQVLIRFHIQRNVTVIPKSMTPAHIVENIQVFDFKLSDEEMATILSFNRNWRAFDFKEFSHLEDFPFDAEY

Turning to `Oc1c(F)c(F)c(-c2c(F)c(F)c(O)c(F)c2F)c(F)c1F` [JF0064, 2,2’,3,3’,5,5’,6,6’-octafluoro-4,4’-biphenyldiol], the IC50 at AKR1B15 [1] was 0.034 ± 0.005 µM; on AKR1B10 [2] (AKR1B10, values in Table 3), below 10 µM; at AKR1B1 [3] (AKR1B1, values in Table 3), below 10 µM.
For the molecule `C[C@H](CCC(=O)O)[C@H]1CC[C@H]2[C@@H]3CC[C@@H]4C[C@H](O)CC[C@]4(C)[C@H]3CC[C@]12C` [Lithocholic acid], the IC50 against AKR1B15 [1] was 16.3 ± 7.6 µM; on AKR1B10 [2] (AKR1B10) it was 0.12 µM; at AKR1B1 [3] (AKR1B1) it was 7.2 µM. In addition, at AKR1B10 [2] (in words), the “selectivity between AKR1B10 and AKR1B1” value is recorded as “more selective against AKR1B10”.
For the molecule `NC(=O)C1=CN([C@@H]2O[C@H](COP(=O)(O)OP(=O)(O)OC[C@H]3O[C@@H](n4cnc5c(N)ncnc54)[C@H](OP(=O)(O)O)[C@@H]3O)[C@@H](O)[C@H]2O)C=CC1` [NADPH], the Km on AKR1B15 [4] is 5.7 µM; on AKR1B10 [5] it was 10 µM; on AKR1B1 [8] it was 2.9 µM. Also, the Kd amounted to 0.092 ± 0.035 µM on AKR1B10 [6] and 0.113 ± 0.009 µM on AKR1B15 [7].
As for `CC1=C(CC(=O)O)c2cc(F)ccc2/C1=C\c1ccc([S+](C)[O-])cc1` (stereo not drawn) [Sulindac], the IC50 is above 100 µM at AKR1B15 [1]; below 10 µM on AKR1B10 [2] (AKR1B10, values in Table 3); below 10 µM at AKR1B1 [3] (AKR1B1, values in Table 3).
Consider `COc1ccc2c(C(=S)N(C)CC(=O)O)cccc2c1C(F)(F)F` [Tolrestat], for which the IC50 at AKR1B15 [1] was above 100 µM; at AKR1B10 [9] it was 0.006 µM; at AKR1B10 [2] (AKR1B10, values in Table 3) it was below 10 µM.
For the molecule AKR1B1 (Homo sapiens), in the data set with CC(=O)CC(C)=O, the Km was 8,100 μM, the kcat came to 0.278 s⁻¹ and the kcat/Km was 36.7 M⁻¹ s⁻¹. Moreover, in the data set with CC(C)=CCC/C(C)=C/C=O, the Km turned out to be 35 µM, the kcat was found to be 1.13 s⁻¹ and the kcat/Km was 29200 M⁻¹ s⁻¹. In addition, in the data set with CCC(=O)CC(=O)CC, the Km was 12,000 μM, the kcat was 0.433 s⁻¹ and the kcat/Km was 36.7 M⁻¹ s⁻¹.

A word on the IC50: it is the midpoint of a concentration-inhibition curve. The Km is the substrate concentration at which the rate is half of its maximum. Usually kcat stands for the number of substrate molecules converted per active site and unit of time at saturation. A word on the kcat/Km: it is the turnover number divided by the Michaelis constant.
